Assay results taken from patent US6878689B2, “Preventives or remedies for heart failure” (Kaken Pharmaceutical Co., Ltd., priority 2000, dated 2005).
Where a SMILES comes first, the peptide text is derived from it. [ ]: non-standard residue; d: D form. d2Nal = N[C@H](Cc1ccc2ccccc2c1)C(=O)O

Test system: papillary muscle of guinea-pig
Assay: Myocardial contractility (developed tension) in isolated, electrically driven papillary muscle of guinea-pig
Conditions: cumulative 10, 30 and 100 μM; n=5; FIG. 1
Description: [Test Example 1] Myocardial Contractility Enhancing Action of Pralmorelin in the Papillary Muscle of Guinea-Pig
The direct effect of pralmorelin on myocardial contractility was evaluated using the isolated cardiac muscle of guinea-pigs according to the standard method for evaluating myocardial contractility. • 1. Materials and Experimental Method • 1) Animal Used
Male Hartley guinea-pigs (body weight, 301-350 g; Japan SLC) were purchased. The animals were accommodated to an environment at a temperature of 23±2° C. and a humidity of 55±15% under 12-hr light/dark cycles while they were allowed to eat and drink water ad libitum until they weighed 360-480 g. Each test substance was tested on a group of five animals. • 2) Reagents Used
The test substances were pralmorelin dihydrochloride (KP-102), representatives of growth hormone secretagogues such as hexarelin, ghrelin and ibutamorelin methanesulfonate (the last being hereunder referred to as MK-0677) (which were prepared by the method described in JP 6-263737 A (kokai)), as well as a recombinant human growth hormone (Sumitomo Pharmaceutical) and amrinone (Sigma) which is a known therapeutic of acute heart failure. KP-102, hexarelin and MK-0677 were dissolved in distilled water. Ghrelin was dissolved in physiological saline. Amrinone was first dissolved in dimethyl sulfoxide and then diluted with physiological saline. The growth hormone was dissolved in a dedicated solubilizer (0.3 w/v % metacresol and 3.9 w/v % D-mannitol). None of the test substance solutions should be added in an amount exceeding 1 w/v %. All reagents other than the test substances were guaranteed products of Nacalai Tesque. • 3) Preparing Specimens of the Isolated Papillary Muscle
The guinea-pigs were stunned with a blow to the back of their head; thereafter, the carotid artery was incised and the animals were exsanguinated to death. The chest was opened, the blood vessels in the upper part of the heart were cut and the heart was removed. The heart was immediately transferred into a Krebs-Henseleit (K-H) nutrient solution (NaCl, 118.0 mM; KCl, 4.7 mM; CaCl2. 2H2O, 1.0 mM; KH2PO4, 1.2 mM; MgSO4.7H2O, 1.2 mM; NaHCO3, 25.0 mM; glucose, 11.0 mM) that had been fully aerated with 95% O2-5% CO2. The heart was fixed on a rubber-lined Petri dish with needles such that its front face was seen. The ventricular wall of the upper right ventricle (toward the atrium) was excised transversely along the atrium, then excised longitudinally along the interventricular septum so that the ventricular wall was opened to expose the right ventricular papillary muscle. Subsequently, the entire surface of the left ventricle was cut open from the aorta (down) to the apex and the anterior wall of the left ventricle was opened wide, to both right and left, and fixed to expose the papillary muscle of the left ventricle. The tricupsid or mitral valve was cut off from the ventricle and the papillary muscle was cut off at the base to prepare a specimen of papillary muscle. The base of the specimen was fixed to field stimulating electrodes in an organ bath filled with 15 mL of the nutrient solution. The tendinous cord adhering to the valve was tied up with a thread and connected to an FD pickup (TB-612T, Nihon Kohden). A resting tension of 0.5 g was loaded and the papillary muscle was driven with an electric stimulator (SEN-3201, Nihon Kohden) at a frequency of 1 Hz by pulses of 20-ms duration and at a voltage intensity about 1.2 times the threshold. After an equilibration period of about 1 hr, KP-102, hexarelin and amrinone were each applied cumulatively up to amounts of 10, 30 and 100 μM. After examination of the changes in inotropic action due to the application of the test substances, 12.5 mM of CaCl2 was added and the maximum tension that was developed by each specimen was obtained. […]

For `C[C@H](NC(=O)[C@@H](Cc1ccc2ccccc2c1)NC(=O)[C@@H](C)N)C(=O)N[C@@H](Cc1c[nH]c2ccccc12)C(=O)N[C@H](Cc1ccccc1)C(=O)N[C@@H](CCCCN)C(N)=O` [KP-102, D-alanyl-3-(naphthalen-2-yl)-D-alanyl-L-alanyl-L-tryptophyl-D-phenylalanyl-L-lysinamide] (H-[dA][d2Nal]AW[dF]K-NH2), which “tension development (positive inotropic action) vs baseline” value is on record?
The value was “significant effect over the baseline value”.
